System: INS-1E rat beta cells, no cytokines, CellTiter-Glo ATP, 48 h
Test: ATP level change in INS-1E without cytokines, dose response, counter-screen for beta-cell apoptosis protection project, INS-1E rat cells, ATP luminescence, cherry pick (AID 463229)

First: CC(C)OCCCNc1ncnc2c1[nH]c1ccccc12
Second: CC(C)OCCCNc1ncnc2c1[nH]c1ccc(F)cc12
The AC50 of the first is 1.8-fold higher: 4.34 µM for the first, 2.46 µM for the second.

Compared with Oc1c(Cl)cc(Cl)cc1/C=N/Nc1ncc(Br)cn1, CCN(CC)c1ccc(/C=N/Nc2nc(C)cc(C)n2)c(O)c1 is 4-fold higher in AC50: 3.94 µM for the first, 15.8 µM for the second.

N#Cc1c(N2CCCCC2)nc(N2CCCCC2)c2c1CCN(Cc1ccccc1)C2 and N=c1c2ccccc2nc2n1CCCCCCCCCCC2 are within 1.5-fold of each other in AC50: 13.8 µM for the first, 13.9 µM for the second.

Brc1ccc(-[n+]2c(-c3ccccc3)cc(-c3ccccc3)cc2-c2ccccc2)cc1 and CCCOC(=O)c1ccc(-[n+]2c(-c3ccccc3)cc(-c3ccccc3)cc2-c2ccccc2)cc1 are within 1.5-fold of each other in AC50: 2.4 µM for the first, 2.15 µM for the second.

First: CC(C)(C)c1cc(CCC(=O)NNC(=S)NC(=O)c2ccccc2)cc(C(C)(C)C)c1O
Second: COc1ccc(C(=O)N/N=C(\c2ccccc2)c2ccccn2)cc1
The AC50 of the first is 2-fold higher: 7.17 µM for the first, 3.51 µM for the second.

First: Nc1nc(F)nc2c1ncn2[C@@H]1O[C@H](CO)[C@@H](O)[C@H]1O
Second: Cc1nc2c(=O)n(C)c(=O)nc-2n(C)n1
The AC50 of the first is 2.9-fold lower: 0.699 µM for the first, 2.06 µM for the second.

Cn1nc(CC(=O)Nc2ccc3c(c2)OCCO3)c2ccccc2c1=O and Cn1c(SCC(=O)N/N=C/c2ccc([N+](=O)[O-])s2)nnc1-c1ccccc1 are within 1.5-fold of each other in AC50: 5.63 µM for the first, 5.11 µM for the second.

Compared with O=S(=O)(c1ccc2nc(Nc3ccccc3)ccc2c1)N1CCCCC1, O=C1C=C(N2CCCCC2)c2ccccc2C1=O is 2.1-fold lower in AC50: 22.4 µM for the first, 10.6 µM for the second.

Going from COc1ccc(C(NC(=O)C(C)C)c2ccc3cccnc3c2O)cc1 (centres undefined) to Cc1cc(OCc2nc(-c3ccc(NC(=O)c4cccnc4)cc3)no2)ccc1Cl, the AC50 falls from 2.84 µM to 1.16 µM (2.4-fold).

N#Cc1ccc(NC(=O)Nc2ccc(Cl)cc2)cc1 and Cc1noc(-c2ccc(C(F)(F)F)cc2)c1NC(=O)Nc1ccc(Cl)cc1 are within 1.5-fold of each other in AC50: 6.57 µM for the first, 7.7 µM for the second.

Cc1cc(-c2ccccc2)n(-c2cc(N/N=C/c3ccccc3O)ncn2)n1 and Cc1ccn2c(Nc3ccccc3)c(-c3ccccn3)nc2c1 are within 1.5-fold of each other in AC50: 7.17 µM for the first, 7.4 µM for the second.

Going from COc1ccc2c(c1)C(=O)[C@@H](O)[C@H](c1ccc(OC)c(Br)c1)O2 to Nc1ccc(Br)cc1-c1nc2ccccc2[nH]c1=O, the AC50 falls from 10.4 µM to 1.32 µM (7.9-fold).

COc1cc2sc(-c3ccccc3OC)c(-c3ccc(OCCN4CCCCC4)cc3)c2cc1OC and CCCCCc1cc(=O)oc2c(C(CCN3CCCCC3)c3ccc4c(c3)OCO4)c(OC)cc(OC)c12 (centres undefined) are within 1.5-fold of each other in AC50: 7.57 µM for the first, 7.89 µM for the second.

Compared with CCOC(=O)c1ccc(NC(=O)c2cccnc2)cc1, CCSc1ccc(NC(=O)c2cccnc2)cc1 is 1.7-fold higher in AC50: 6.64 µM for the first, 11.1 µM for the second.

CC1CC(=O)c2c(cc3c(-c4c(O)cc(O)c5c(O)c6c(cc45)OC(C)CC6=O)c(O)cc(O)c3c2O)O1 (centres undefined) and CCCCC1CCC(C(=O)N(CC(C)C)c2c(N)n(Cc3ccccc3)c(=O)[nH]c2=O)CC1 (centres undefined) are within 1.5-fold of each other in AC50: 5.1 µM for the first, 6.87 µM for the second.

CCc1ccc(C(=O)NNc2cc(Cl)ccc2Cl)cc1 and O=C(N/N=C/c1ccc([N+](=O)[O-])o1)c1ccc(O)cc1 are within 1.5-fold of each other in AC50: 8 µM for the first, 7.45 µM for the second.

First: Cc1ccc(NC(=O)c2nc(S(=O)(=O)Cc3ccccc3)ncc2Cl)cc1
Second: CC(=O)Nc1ccc(NC2=C/C(=N/S(=O)(=O)c3cccs3)c3ccccc3C2=O)cc1
The AC50 of the first is 2-fold higher: 15.3 µM for the first, 7.66 µM for the second.

CCCOc1ccc(Br)cc1CSC(=N)N and Cc1cc(C)c2c(N)c3cccc(C)c3nc2n1 are within 1.5-fold of each other in AC50: 8.01 µM for the first, 7.91 µM for the second.

Compared with CCN1CCN(Cc2ccc(NC(=O)c3cc(NC(=O)c4cnn(-c5ccccc5)c4N)cc(OC)c3)cc2C(F)(F)F)CC1, Nc1c(N(CCC2=CCCCC2)C(=O)COc2ccc(F)cc2)c(=O)[nH]c(=O)n1Cc1ccccc1 is 3.4-fold lower in AC50: 15.3 µM for the first, 4.49 µM for the second.

CC(=O)c1ccc(N2CCN(S(=O)(=O)c3ccc4c(c3)CC(C)N4C(C)=O)CC2)cc1 (centres undefined) and CC(=O)Nc1ccc(NC(=O)CN(c2cccc([N+](=O)[O-])c2)S(C)(=O)=O)cc1 are within 1.5-fold of each other in AC50: 8.54 µM for the first, 6.49 µM for the second.

Going from CC(C)CCCCCCNC(=S)Nc1ccc(S(=O)(=O)N2CCOCC2)cc1 to COC(=O)[C@H](Cc1ccccc1)N(Cc1ccccc1)S(=O)(=O)N(Cc1ccccc1)[C@@H](Cc1ccccc1)C(=O)OC, the AC50 falls from 12.6 µM to 4.38 µM (2.9-fold).

COc1ccc(CC(=O)Nc2cccc(-c3nnc(-c4cccc(C)c4)o3)c2)cc1OC and Cc1cc(/C=N/n2cnnc2)c(C)n1-c1ccc(OCc2ccccc2F)cc1 are within 1.5-fold of each other in AC50: 3.46 µM for the first, 4.05 µM for the second.

Cc1ccc(N2C(=O)NC(=O)/C(=C\C=C\c3ccco3)C2=O)cc1C and COc1ccc(OC)c2c1C(=O)C(Cl)=C(Cl)C2=O are within 1.5-fold of each other in AC50: 5.85 µM for the first, 8.18 µM for the second.

First: O=C(CN1CC[n+]2c(-c3cccs3)csc21)c1ccc(-c2ccccc2)cc1
Second: COC(=O)C1CN(C#N)N(c2ccc(Cl)cc2)C12c1ccccc1-c1ccccc12 (centres undefined)
The AC50 of the first is 1.8-fold lower: 2.34 µM for the first, 4.26 µM for the second.

Compared with c1ccc(Nc2nc(NCc3ccco3)c3ccccc3n2)cc1, Oc1ccc2ccccc2c1N=Nc1ccccn1 is 1.9-fold lower in AC50: 8.02 µM for the first, 4.14 µM for the second.

Oc1ccc(-c2n[nH]c(C(F)(F)F)c2-c2ccccc2)c(O)c1 and Oc1c(C(Nc2ccccn2)c2cccnc2)cc(Cl)c2cccnc12 (centres undefined) are within 1.5-fold of each other in AC50: 5.86 µM for the first, 7.48 µM for the second.

Compared with Cc1ccc(-c2cc(-c3ccc(C)cc3)[n+](-c3ccc(C(=O)[O-])cc3)c(-c3ccc(C)cc3)c2)cc1, COc1ccc(-c2c[n+]3c(n2-c2ccc(C)cc2)CCCCC3)cc1 is 23-fold lower in AC50: 7.24 µM for the first, 0.317 µM for the second.

From PubChem BioAssay AID463229 (Broad Institute, 2010)
